Results on 31 compounds are retold here after PMC8286840, “Identifying SARS-CoV-2 antiviral compounds by screening for small molecule inhibitors of Nsp3 papain-like protease” (Biochemical Journal, 2021).

Experiment [1] concerns the target T1, SARS-CoV-2 PLpro (nsp3 1564–1878) (Severe acute respiratory syndrome coronavirus 2, UniProt P0DTD1). Nature of the experiment: biochemical. More on the design: FRET-quenched peptide (Pro3) cleavage by PLpro, 10 min pre-incubation, slope over 20 min, normalised to no-compound control. The following applies: read-out: % of control remaining.
Experiment [2] addresses T1, SARS-CoV-2 PLpro (nsp3 1564–1878). The experiment is described as follows: biochemical. More on the design: FRET-quenched peptide (Pro3) cleavage by PLpro, 10 min pre-incubation, slope over 20 min, normalised to no-compound control. As to conditions: read-out: % of control remaining. This is another data set of the same source.

Counter-ions that a name gives are not always drawn. Like-named read-outs stand apart in the source and are kept apart here.

As for `COc1cc(C(C)=O)ccc1OCCCN1CCC(c2noc3cc(F)ccc23)CC1` [Iloperidone], the remaining activity at 3.75 µM in experiment [1] (Well no.=7333, high concentration screen) amounted to 91.9%. The remaining activity at 1.25 µM in experiment [2] (Well no.=7333, low concentration screen) was found to be 102%.
Take `CCCCCCCCCCCCCCCCCCC(=O)O` [Nonadecanoic acid]: the remaining activity at 3.75 µM in experiment [1] (Well no.=4362, high concentration screen) came out at 95.6%. In experiment [2] (Well no.=4362, low concentration screen), the remaining activity at 1.25 µM worked out at 100%.
As to `CCCCC/C=C/C/C=C/CCCCCCCC(=O)O` [9(E),12(E)-Octadecadienoic acid], the remaining activity at 3.75 µM in experiment [1] (Well no.=4356, high concentration screen) was found to be 104%. Moreover, the remaining activity at 1.25 µM in experiment [2] (Well no.=4356, low concentration screen) was found to be 105%.
In the case of `CCC(=O)O[C@]1(C(=O)CCl)[C@@H](C)C[C@H]2[C@@H]3C[C@H](F)C4=CC(=O)C=C[C@]4(C)[C@@]3(F)[C@@H](O)C[C@@]21C` [Halobetasol Propionate], the remaining activity at 3.75 µM in experiment [1] (Well no.=8250, high concentration screen) turned out to be 91.1%. Further, in experiment [2] (Well no.=8250, low concentration screen), the remaining activity at 1.25 µM turned out to be 94.9%.
For the compound `CN1C2=CC(=O)/C(=N\NC(N)=O)C=C2CC1S(=O)(=O)O` (centres unmarked) [Carbazochrome sodium sulfonate], the remaining activity at 3.75 µM in experiment [1] (Well no.=5261, high concentration screen) worked out at 95%. Besides, in experiment [2] (Well no.=5261, low concentration screen), the remaining activity at 1.25 µM came out at 96.5%.
`O=C(O)c1cn(C2CC2)c2cc(N3C[C@@H]4C[C@H]3CN4)c(F)cc2c1=O` [1-cyclopropyl-7-[(1S,4S)-2,5-diazabicyclo[2.2.1]hept-2-yl]-6-fluoro-4-oxo-1,4-dihydro-3-quinolinecarboxylic acid methanesulfonate hydrate]: the remaining activity at 3.75 µM in experiment [1] (Well no.=5598, high concentration screen) was 86.5%. Besides, the remaining activity at 1.25 µM in experiment [2] (Well no.=5598, low concentration screen) is 91.4%.
Regarding `CC(N)(COP(=O)(O)O)C(=O)O` (centres unmarked) [2-methyl-O-phosphonoserine], the remaining activity at 3.75 µM in experiment [1] (Well no.=5427, high concentration screen) came out at 101%. The remaining activity at 1.25 µM in experiment [2] (Well no.=5427, low concentration screen) came to 96.2%.
With `COc1ccc2c(c1OC)CN1CCc3cc4c(cc3C1C2)OCO4` (centres unmarked) [Tetrahydroberberine], in experiment [1] (Well no.=6656, high concentration screen), the remaining activity at 3.75 µM stood at 99.7%. In addition, the remaining activity at 1.25 µM in experiment [2] (Well no.=6656, low concentration screen) amounted to 97.9%.
On to `COc1c(N2C[C@@H]3CCCN[C@@H]3C2)c(F)cc2c(=O)c(C(=O)O)cn(C3CC3)c12` [Moxifloxacin HCl], for which, in experiment [1] (Well no.=4878, high concentration screen), the remaining activity at 3.75 µM came to 93.6%. Also, the remaining activity at 1.25 µM in experiment [2] (Well no.=4878, low concentration screen) amounted to 98.1%.
With `CCCCCCCCCC(=O)OCC(CO)OC(=O)CCCCCCCCC` (centres unmarked) [1,2-Didecanoyl-glycerol (10:0)], the remaining activity at 3.75 µM in experiment [1] (Well no.=4474, high concentration screen) was determined as 95.2%. In experiment [2] (Well no.=4474, low concentration screen), the remaining activity at 1.25 µM was 101%.
In the case of `Cc1cccc(C)c1NC1=NCCCS1` [Xylazine (hydrochloride)], the remaining activity at 3.75 µM in experiment [1] (Well no.=6847, high concentration screen) came out at 95.9%. Moreover, in experiment [2] (Well no.=6847, low concentration screen), the remaining activity at 1.25 µM was 101%.
In the case of `Cc1cccc(C2CN(C)CCc3c2cc(O)c(O)c3Cl)c1` (centres unmarked) [SKF 83959 hydrobromide], the remaining activity at 3.75 µM in experiment [1] (Well no.=1264, high concentration screen) was 108%. Further, in experiment [2] (Well no.=1264, low concentration screen), the remaining activity at 1.25 µM came out at 106%.
Regarding `O=C(O)CCC(=O)C(=O)O` [2-Ketoglutaric acid], the remaining activity at 3.75 µM in experiment [1] (Well no.=7061, high concentration screen) was found to be 98.4%. Further, the remaining activity at 1.25 µM in experiment [2] (Well no.=7061, low concentration screen) worked out at 103%.
Consider `C=CCn1c(=O)c2c(nc(-c3ccc(S(=O)(=O)O)cc3)n2C)n(C)c1=O` [1-Allyl-3,7-dimethyl-8-p-sulfophenylxanthine], for which the remaining activity at 3.75 µM in experiment [1] (Well no.=16, high concentration screen) is 89.6%. The remaining activity at 1.25 µM in experiment [2] (Well no.=16, low concentration screen) was found to be 98.3%.
On to `CCCCCCCCCCCCCCCCCCCCCCC(=O)O` [Tricosanoic acid], for which the remaining activity at 3.75 µM in experiment [1] (Well no.=4496, high concentration screen) was 92.7%. Moreover, in experiment [2] (Well no.=4496, low concentration screen), the remaining activity at 1.25 µM turned out to be 91.3%.
On to `O=C(O)c1cccnc1Nc1cccc(C(F)(F)F)c1` [Niflumic acid], for which the remaining activity at 3.75 µM in experiment [1] (Well no.=995, high concentration screen) is 103%; in experiment [1] (Well no.=2011, high concentration screen) it was 106%. Also, the remaining activity at 1.25 µM in experiment [2] (Well no.=995, low concentration screen) amounted to 99.1%; in experiment [2] (Well no.=2011, low concentration screen), 102%.
Consider `C[N+]1(C)[C@@H]2C[C@@H](OC(=O)C(O)(c3cccs3)c3cccs3)C[C@H]1[C@@H]1O[C@@H]12` [Tiotropium Bromide], for which, in experiment [1] (Well no.=2108, high concentration screen), the remaining activity at 3.75 µM was determined as 102%. The remaining activity at 1.25 µM in experiment [2] (Well no.=2108, low concentration screen) amounted to 102%.
Consider `CC1(NC(=O)CBr)CCC(C(C)(C)NCC(O)COc2cccc3[nH]ccc23)CC1` (racemic), for which the remaining activity at 3.75 µM in experiment [1] (Well no.=1215, high concentration screen) came to 102%. The remaining activity at 1.25 µM in experiment [2] (Well no.=1215, low concentration screen) was found to be 99.4%.
For `CC(=O)O[C@H]1C[C@@H]2CC[C@@H]3[C@H](CC[C@@]4(C)[C@H]3C[C@H]([N+]3(C)CCCCC3)[C@@H]4OC(C)=O)[C@@]2(C)C[C@@H]1N1CCCCC1` [Vecuronium], in experiment [1] (Well no.=2014, high concentration screen), the remaining activity at 3.75 µM turned out to be 103%. The remaining activity at 1.25 µM in experiment [2] (Well no.=2014, low concentration screen) turned out to be 103%.
For the compound `C/C(O)=C(\C#N)C(=O)Nc1cc(Br)ccc1Br` [LFM-A13 - 2-Cyano-N-(2,5-dibromophenyl)-3-hydroxy-2-butenamide], the remaining activity at 3.75 µM in experiment [1] (Well no.=2384, high concentration screen) is 102%. In addition, the remaining activity at 1.25 µM in experiment [2] (Well no.=2384, low concentration screen) was determined as 101%.
On to `NS(=O)(=O)Cc1noc2ccccc12` [Zonisamide], for which the remaining activity at 3.75 µM in experiment [1] (Well no.=1879, high concentration screen) turned out to be 96.4%. For the same compound, the remaining activity at 1.25 µM in experiment [2] (Well no.=1879, low concentration screen) is 94.7%.
Consider `CCCN(CCC)C(=O)C1=Cc2ccc(-c3ccc(C(=O)N4CCCC4)cc3)cc2N=C(N)C1` [Motolimod], for which, in experiment [1] (Well no.=8413, high concentration screen), the remaining activity at 3.75 µM stood at 99%. In experiment [2] (Well no.=8413, low concentration screen), the remaining activity at 1.25 µM came to 103%.
Regarding `O=S(=O)(O)c1ccc2c(N=Nc3ccc(S(=O)(=O)O)c4ccccc34)c(O)c(S(=O)(=O)O)cc2c1` [Amaranth], the remaining activity at 3.75 µM in experiment [1] (Well no.=8462, high concentration screen) stood at 97.5%. Also, the remaining activity at 1.25 µM in experiment [2] (Well no.=8462, low concentration screen) came out at 98.1%.
As for `O=S(=O)(O)C1CCNCC1` [Piperidine-4-sulphonic acid], in experiment [1] (Well no.=1449, high concentration screen), the remaining activity at 3.75 µM worked out at 94.6%. Moreover, the remaining activity at 1.25 µM in experiment [2] (Well no.=1449, low concentration screen) came to 99.5%.
`Cc1cccc(C(C)c2c[nH]cn2)c1C` (centres unmarked) [Medetomidine (hydrochloride)]: the remaining activity at 3.75 µM in experiment [1] (Well no.=7479, high concentration screen) worked out at 99.7%. The remaining activity at 1.25 µM in experiment [2] (Well no.=7479, low concentration screen) is 103%.
Regarding `Nc1c(O)cccc1C(=O)O` [3-Hydroxyanthranilic acid], in experiment [1] (Well no.=6535, high concentration screen), the remaining activity at 3.75 µM came to 91.9%. The remaining activity at 1.25 µM in experiment [2] (Well no.=6535, low concentration screen) is 102%.
In the case of `O=Cc1cn(Cc2ccc(Cl)cc2)c2ccccc12` [Oncrasin-1], the remaining activity at 3.75 µM in experiment [1] amounted to 101%. Also, the remaining activity at 1.25 µM in experiment [2] worked out at 95.2%.
As to `C[C@@](Cc1ccc(O)c(O)c1)(NN)C(=O)O` [S-(-)-Carbidopa], the remaining activity at 3.75 µM in experiment [1] (Well no.=677, high concentration screen) turned out to be 97.9%. Also, in experiment [2] (Well no.=677, low concentration screen), the remaining activity at 1.25 µM is 99.2%.
Turning to `COc1ccc(C(C)=O)c(O)c1` [Paeonol], the remaining activity at 3.75 µM in experiment [1] (Well no.=4045, high concentration screen) came to 101%; in experiment [1] (Well no.=8194, high concentration screen), 102%. In addition, the remaining activity at 1.25 µM worked out at 100% in experiment [2] (Well no.=4045, low concentration screen) and 105% in experiment [2] (Well no.=8194, low concentration screen).
For `O=C(O)c1cccnc1C(=O)O` [Quinolinic acid], the remaining activity at 3.75 µM in experiment [1] (Well no.=1267, high concentration screen) stood at 109%; in experiment [1] (Well no.=7265, high concentration screen) it was 94.7%. Besides, the remaining activity at 1.25 µM in experiment [2] (Well no.=1267, low concentration screen) was determined as 105%; in experiment [2] (Well no.=7265, low concentration screen), 96.1%.
With `Nc1nc(CC(=O)Nc2ccc(CCNC[C@H](O)c3ccccc3)cc2)cs1` [Mirabegron], in experiment [1] (Well no.=6273, high concentration screen), the remaining activity at 3.75 µM was determined as 116%. For the same compound, the remaining activity at 1.25 µM in experiment [2] (Well no.=6273, low concentration screen) was 107%.
